Measured values from US20100098737A1, “METHODS AND COMPOSITIONS FOR DELIVERY OF GLYCOPEPTIDE ANTIBIOTICS TO MEDICAL DEVICE SURFACES” (priority 2008, published 2010).
Where two headings read alike, the source gives them in different places. *1 amine or outer side, *2 acyl side, *3 side chain or, on linkers, in order; H or OH if unused. Bridges are numbered along the chain shown (N, C = ends). Where no end group is shown, it is not given here. [ ]: non-standard residue; d: D form. (miniPEG)2 = linker of two miniPEG units, each HN-CH2CH2-O-CH2CH2-O-CH2-C(=O), O=C(COCCOCCN[*:1])NCCOCCOCC(=O)[*:2]

Columns and labels:
S. aureus = assay: bacterial growth with loaded titanium beads, optical density at 600 nm; assay type: cell-based; conditions: peptide 10 μM + vancomycin 200 μM, 37° C. for 18 hours
Protocol: In another experiment, antimicrobial activity of the peptide compositions was measured as follows. Titanium beads were placed into wells of a 96 well plate. To each well was added a 10 μM of peptide composition comprising at least one surface-binding peptide coupled to at least one glycopeptide antibiotic binding peptide and vancomycin at 200 μM. The appropriate negative controls were also included. The plate was incubated for 1 hour at 20° C., and then the wells and beads were washed 4 times with buffer. After washing, the beads were transferred to the well of a plate containing S. aureus in log phase growth and incubated at 37° C. for 18 hours. Bacterial growth was assessed by reading optical density at 600 nm.

[1] = binding of serially diluted alkaline-phosphatase linked peptides to immobilized biotinylated vancomycin; conditions: absorbance at 405 nm
Description: From the peptide amino acid sequence […] (SEQ ID NO: 1) additional peptides were designed and expressed in the bacterial expression system described herein to further evaluate structure-function relationships. A truncated peptide comprising the amino acid sequence of SEQ ID NO:9 (STCLIDMYGVCH) was expressed and compared to a peptide comprising SEQ ID NO:1 for binding affinity for glycopeptide antibiotic. Also produced were a dimer of this truncated peptide (SEQ ID NO:10; […]), a D to A substitution (SEQ ID NO:11; STCLIAMYGVCH), a D to E substitution (SEQ ID NO:12; STCLIEMYGVCH), and a G to S substitution (SEQ ID NO:13; STCLIDMYSVCH). Relative binding strengths of these peptides and of other representative peptides to glycopeptide antibiotic were determined by EC50 values for binding to vancomycin or other glycopeptide antibiotic.
(§1) A typical binding assay for glycopeptide antibiotic was performed according to the following procedure. The concentrations of the alkaline-phosphatase linked variant peptides were normalized to equal levels based on the alkaline-phosphatase activity as determined in a kinetic assay with the alkaline-phosphatase specific chromogenic substrate p-nitrophenyl phosphate (p-NPP). A streptavidin coated microtiter plate was coated with biotinylated vancomycin. Serial dilutions of normalized alkaline-phosphatase linked peptides were allowed to bind to the immobilized vancomycin and detected by addition of the alkaline-phosphatase specific chromogenic substrate p-NPP. Relative affinity for peptide binding to the immobilized vancomycin was determined by measuring the absorbance at 405 nm of the colored product of the alkaline phosphatase reaction. […] EC50 values for the synthetic peptides binding to vancomycin were determined as described in Example 1 and are shown in Table 3. Preferred are peptides that bind to glycopeptide antibiotic with binding affinity of EC50 of less than or equal to about 1 μM, and more preferably, in the nanomolar range (e.g., <0.1 μM).

[2] = binding assay: biotinylated synthetic peptide on streptavidin plate, titrated with biotinylated glycopeptide antibiotic
Protocol: A typical binding assay for glycopeptide antibiotic was performed according to the following procedure. Briefly, synthetic peptides comprising an amino acid sequence to be characterized for binding were biotinylated to facilitate immobilization on streptavidin-coated 96-well plates. The microtiter plates were coated with streptavidin by adding 50 μl of a 10 μg/ml streptavidin solution in 0.1M NaHCO3, and incubating the plates for at least 3 hours. The plate wells were blocked by adding 150 μl of a 1% BSA solution in 0.1 NaHCO3 with incubation for at least 2 hours, and the plates were stored at 4° C. until needed. Before use, the streptavidin plates were washed extensively in buffer-T. Added per well was peptide (100 μl 0.1 μM peptide in buffer-T), and then incubated for 30 minutes at room temperature with shaking. 200 μl of 0.5 mM biotin in buffer-T was added to block the remaining streptavidin sites, and plates were incubated for 15 minutes at room temperature. Plates were then washed with buffer-T to remove the excess biotin and peptide. Serial dilutions of biotinylated glycopeptide antibiotic in buffer-T were added (100 μl) to each well, representing a range of concentrations between 100 pM and 100 μM. Plates were incubated for 30 minutes at room temperature with shaking prior to washing several times with buffer-T. Glycopeptide antibiotic was then detected by adding 100 μl of a diluted streptavidin-alkaline phosphatase conjugate to each well and incubated at room temperature for 30 minutes. Excess conjugate was removed by repeated washes with buffer-T, and the amount of alkaline phosphatase remaining in the well was detected using a pNPP (para-nitrophenylphosphate) colorimetric enzymatic assay. The relative amount of glycopeptide antibiotic captured by the peptides was determined by measuring the absorbance at 405 nm of the colored product of the alkaline phosphatase reaction. The EC50 was determined for each peptide relative to the binding affinity for the glycopeptide antibiotic used in the assay, as shown in Table 1 (with vancomycin as a representative glycopeptide antibiotic).
as §1

[3] = tested on: Staphylococcus aureus strain MZ100; assay: in vitro infection assay on titanium beads, colony counts; assay type: cell-based; conditions: peptide 5 μM + vancomycin 100 μM
Protocol: To illustrate the antibacterial activity of the peptide compositions, an in vitro infection assay was performed. Briefly, a surface material was contacted with one of the peptide compositions such that the peptide binds to the surface material. The peptide composition can have glycopeptide antibiotic already bound thereto at the time of contacting the peptide with the surface material, or the glycopeptide antibiotic can be contacted with the peptide in a step subsequent to binding the peptide composition to the surface material. The surface material was washed to remove unbound glycopeptide antibiotic, and then contacted with bacterial cells (added from a culture in log phase growth) and incubated to promote bacterial growth. The surface material was washed, and any bacterial cells colonizing the surface material removed and plated to assess bacterial growth.
In one example, Staphylococcus aureus strain MZ100 was used as the representative bacterial cells. First, as a representative surface material, titanium beads were sterilized in acetone in a sonication bath, and then air dried in a sterile hood. The beads were individually placed in sterilized microfuge tubes (one bead per tube). […] The next day, the plates were examined for bacterial growth, and the number of bacterial colonies was quantified per plate.

vancomycin [4] = assay: competition on plates: immobilised biotinylated SEQ ID NO: 1 peptide, 20 nM biotinylated vancomycin, Lys-D-Ala-D-Ala titrated
vancomycin [5] = assay: plate assay: biotinylated peptide on streptavidin, biotinylated vancomycin titrated, streptavidin-AP detection
vancomycin [6] = assay: plate assay as in Example 1: synthetic peptide on streptavidin, biotinylated vancomycin titrated
vancomycin [7] = assay: titanium beads with 10 µM peptide composition and 200 µM vancomycin, washed, vancomycin eluted with HCl and measured by HPLC
[8] = synthetic peptides binding to vancomycin, read-out: EC50, binding to glycopeptide antibiotic
[9] = synthetic peptides, biotinylated vancomycin, read-out: EC50 (μM) for vancomycin binding

130 (SSCLIDIYGVCHNFDAY[(miniPEG)2]HKKNNPKKKNKTRGSSK; disulfide 3-11 (inferred)) [compound 130]
inhibition of bacterial growth (optical density at 600 nm) (S. aureus): complete inhibition

12 (STCLIEMYGVCH) [compound 12]
glycopeptide antibiotic binding of alkaline-phosphatase linked peptides [1]: no detectable glycopeptide antibiotic binding

13 (STCLIDMYSVCH) [compound 13]
glycopeptide antibiotic binding of alkaline-phosphatase linked peptides [1]: no detectable glycopeptide antibiotic binding

CLFDIFGVCHSFDGAYDS [compound 2]
EC50 [2, 8]: < 0.1 µM
EC50 [2, 9]: 0.06 µM

SLIDMYGVCHNFDGAYDS [compound 5]
EC50 [2, 9]: 10 µM

SCDMLFCENFSGSGNNWFS [compound 4]
EC50 [2, 9]: 10 µM

131 (SSCLIDIYGVCHNFDAY[(miniPEG)2]SSHRTNHKKNNPKKKNKTRGSSGK; disulfide 3-11 (inferred)) [compound 131]
inhibition of bacterial growth (optical density at 600 nm) (S. aureus): complete inhibition

PCELIDMFGNDHCP [compound 3]
EC50 [2, 8]: < 0.1 µM
EC50 [2, 9]: 0.82 µM

11 (STCLIAMYGVCH) [compound 11]
glycopeptide antibiotic binding of alkaline-phosphatase linked peptides [1]: no detectable glycopeptide antibiotic binding

STCLIDMYGVCH [compound 9]
EC50 [2, 8]: < 1 µM
glycopeptide antibiotic binding of alkaline-phosphatase linked peptides [1]: displayed glycopeptide antibiotic binding

119 (NHTISKNHKKKNKNSNKTR) [compound 119]
bacterial growth on the plates [3]: completely inhibited

Lys-D-Ala-D-Ala (peptide)
IC50 (vancomycin [4]): 10000 nM
percent inhibition at 100 µM to 200 µM Lys-D-Ala-D-Ala (vancomycin [4]): 100%

STCLIDMYGVCHSSCLIDMYGVCH [compound 10]
EC50 [2, 8]: < 1 µM
glycopeptide antibiotic binding of alkaline-phosphatase linked peptides [1]: displayed glycopeptide antibiotic binding

120 (H-SSSCLIDMYGVCHNFDGAYDSSRG[(miniPEG)2]SSHRTNHKKNNPKKKNKTRGSSGK-NH2; disulfide 4-12) [compound 120]
inhibition of bacterial growth (optical density at 600 nm) (S. aureus): complete inhibition

NHTISKNHKKKNKNSNKTR [SEQ ID NO: 119]
# of bacterial colonies ([3]; 2 hour incubation): 0

B1: synthetic peptide comprising SEQ ID NO: 1 (peptide)
peptide: CLIDMYGVCHNFDGAYDS
modifications: cysteine pairing not given here; also: biotinylated, site not given here
EC50 (vancomycin [5]): 100 nM
EC50 (vancomycin [6]): < 100 nM

B2: synthetic peptide comprising SEQ ID NO: 10 (peptide)
peptide: STCLIDMYGVCHSSCLIDMYGVCH
modifications: cysteine pairing not given here; also: biotinylated, site not given here
EC50 (vancomycin [6]): < 1000 nM

B3: synthetic peptide comprising SEQ ID NO: 2 (peptide)
peptide: CLFDIFGVCHSFDGAYDS
modifications: cysteine pairing not given here; also: biotinylated, site not given here
EC50 (vancomycin [5]): 60 nM
EC50 (vancomycin [6]): < 100 nM

B4: peptide composition SEQ ID NO: 130 (peptide)
peptide: SSCLIDIYGVCHNFDAY[(miniPEG)2]HKKNNPKKKNKTRGSSK
modifications: disulfide 3-11 (inferred)
Picomoles vancomycin/cm^2 (picomoles/cm^2) (vancomycin [7]): 83

B5: peptide composition SEQ ID NO: 131 (peptide)
peptide: SSCLIDIYGVCHNFDAY[(miniPEG)2]SSHRTNHKKNNPKKKNKTRGSSGK
modifications: disulfide 3-11 (inferred)
Picomoles vancomycin/cm^2 (picomoles/cm^2) (vancomycin [7]): 76

B6: synthetic peptide comprising SEQ ID NO: 3 (peptide)
peptide: PCELIDMFGNDHCP
modifications: cysteine pairing not given here; also: biotinylated, site not given here
EC50 (vancomycin [5]): 820 nM
EC50 (vancomycin [6]): < 100 nM

B7: synthetic peptide comprising SEQ ID NO: 4 (peptide)
peptide: SCDMLFCENFSGSGNNWFS
modifications: cysteine pairing not given here; also: biotinylated, site not given here
EC50 (vancomycin [5]): 10000 nM

B8: synthetic peptide comprising SEQ ID NO: 5 (peptide)
peptide: SLIDMYGVCHNFDGAYDS
modifications: also: biotinylated, site not given here
EC50 (vancomycin [5]): 10000 nM

B9: synthetic peptide comprising SEQ ID NO: 9 (peptide)
peptide: STCLIDMYGVCH
modifications: cysteine pairing not given here; also: biotinylated, site not given here
EC50 (vancomycin [6]): < 1000 nM
